Patent US20070135383A1, “Phospholipase inhibitors, including multi-valent phospholipase inhibitors, and use thereof, including as lumen-localized phospholipase inhibitors” (priority 2005, published 2007)

Key:
Stability at low pH = type: physicochemical
[1] = In-vitro Caco-2 permeability study (Example 1B-2); conditions: human
[2] = target: T1, porcine group 1B PLA2 (pps PLA2) (Sus scrofa, UniProt P00592); test: Fluorimetric PPyrPM assay for group 1B PLA2 inhibition (Example 12); type: biochemical; conditions: porcine pancreas secreted PLA2; read-out: ILYPSA IC50 pps PLA2
T1 construct: purchased
T1 sequence (P00592 23-146): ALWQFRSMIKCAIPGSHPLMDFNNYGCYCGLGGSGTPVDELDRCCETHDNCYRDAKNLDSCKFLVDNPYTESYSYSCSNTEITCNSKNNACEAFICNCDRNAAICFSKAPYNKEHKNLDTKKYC
How it was run: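 Porcine group 1B PLA2 hydrolysis of 4.2 uM PPyrPM vesicle solution (pre-mixing concentration) in 50 mM Tris-HCl pH 8.0, 50 mM KCl, 1 mM CaCl2 with BSA; inhibitors in 8-point threefold series from 15 uM. After 3 min at 37 °C, fluorescence read at ex 342/em 395 nm; duplicate IC50 by four-parameter fit.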

Structure (SMILES) | stability at low pH (Stability at low pH) | Papp A→B at 6 hr, 50 ug/ml [1] [×10⁻⁶ cm/s] | IC50 [2] [nM]
Cc1c(C(=O)C(N)=O)c2c(OCC(=O)O)cccc2n1Cc1ccccc1-c1ccccc1 [ILY-4001, 2-(3-(2-amino-2-oxoacetyl)-1-(biphenyl-2-ylmethyl)-2-methyl-1H-indol-4-yloxy)acetic acid] | stable | ~0.166 | 
Cc1c(C(=O)C(N)=O)c2c(OCC(=O)O)cccc2n1CCCCCCCCSCCCCCCCCSCCCCCCCCn1c(C)c(C(=O)C(N)=O)c2c(OCC(=O)O)cccc21 [ILY-V-24, 2,2′-(1,1′-(8,8′-(Octane-1,8-diylbis(sulfanediyl))bis(octane-8,1-diyl))bis(3-(2-amino-2-oxoacetyl)-2-methyl-1H-indole-4,1-diyl))bis(oxy)diacetic acid] |  |  | 800
